Measured values reported in patent publication US8759363B2, “Quinazoline-based T cell proliferation inhibitors” (Yissum Research Development Company of the Hebrew …, priority 2010, dated 2014).

How the values were obtained:
[1] = tested on: PBMC; experiment: PBMC proliferation, BrdU incorporation; format: cell-based, human; conditions: Homo sapiens; ConA-stimulated PBMC, BrdU uptake; nM ± SD; read-out: IC50 PBMC proliferation inhibition
Protocol: Blood samples were taken from healthy donors and loaded on a Ficoll density gradient to purify the PBMC population. T cells were purified by human anti-CD3 using an autoMACS instrument (Miltenyi Biotec, Bergisch-Gladbach, Germany), according to the manufacturer's instructions. The identity of T cells was confirmed by flow cytometry, as they stained positive for CD3. Cells were stimulated with ConA (10 μg/ml), ODN2006 (0.5 μg/ml; Enzo Life Sciences), or LPS (50 μg/ml; Sigma-Aldrich, Steinheim, Germany), for 72 h in the presence of the inhibitor, and their proliferation was measured in the BrdU incorporation assay as will be later described.
(§1) Cells were depleted of fetal calf serum (FCS) for 12 hours. They were then stimulated to proliferate by addition of ConA (10 μg/ml) for PBMC from healthy individuals and for Jurkat cells, FCS (10%) for HEK293 and A375 cells, PDGF (30 ng/ml) for NIH 3T3 cells, and EGF (30 ng/ml) for MDA-MB-231, Cells (1×10^5) were cultured in 96-well plates for 3 days in the presence or absence of inhibitors at the concentrations specified in the text. Each condition was tested in duplicate wells.
(§2) Proliferation was assessed by BrdU incorporation using a colorimetric ELISA kit (Roche, Germany). Subsequent to labeling with 10 μM BrdU, DNA was denatured and the cells were incubated with anti-BrdU-POD, prior to the addition of colorimetric substrate (TMB). The reaction product was quantified by measuring absorbance at 450 nm in an ELISA plate reader (ELx800 BIO-TEK Instruments Inc.).
(§3) Since we were not prejudiced towards any specific protein kinase, we used a biological assay for T cell proliferation. We tested our libraries for inhibition of proliferation of PBMC and Jurkat cells (Table 3). Cell proliferation was measured by BrdU uptake. […] PBMC cells were stimulated by a non-specific T cell mitogen, Concanavalin A (ConA). All of the compounds that were tested inhibited proliferation at micromolar or sub-micromolar concentrations.

[2] = tested on: Jurkat cells; experiment: Jurkat cell proliferation, BrdU incorporation; format: cell-based, human; conditions: Homo sapiens, Jurkat, BrdU uptake; nM ± SD; read-out: IC50 Jurkat cells proliferation inhibition
Protocol: as §1, §2, §3

[3] = tested on: IL-2 secretion by 2C splenocytes stimulated by irradiated BALB/c splenocytes; experiment: IL-2 levels in MLR supernatants; format: cell-based, mouse; conditions: 24, 48 and 72 h MLR; compound 2 up to 1 μM
Protocol: In the mixed lymphocyte reaction, stimulator cells cause responder cells to proliferate, owing to alloreactivity [Reich-Zeliger et al., 2004]. Splenocytes from 2c mice were stimulated by irradiated splenocytes from BALB/c mice in the presence of the evaluated compound at the concentrations specified. Cultures were incubated for 72 hours in 96-well plates.
Jurkat or PBMC cells were treated for 12 h with 1 μM, 0.5 μM or no inhibitor. Cells (1×10^6) were plated in 24-well plates (Nunc) and stimulated by C305 (dilution 1:500), anti-CD28 (1:100), PMA (50 ng/ml) or ionomycin (1 μM) for 12 h. Alternately, cells were stimulated for 24, 48 and 72 h in MLR. After stimulation cells were centrifuged at 130×g for 5 minutes at room temperature.
Supernatants were collected and IL-2 was assayed using the IL-2 ELISA kit (BioSource International USA, KH0022) according to the manufacturer's instructions. Absorbance was read at 450 nm in an ELISA plate reader (ELx800 BIO-TEK Instruments Inc.).
In vivo, T cells are stimulated by neighboring cells. In order to test the effect of 2 on cell-stimulated IL-2 secretion, the supernatants of splenocytes after 24, 48 and 72 h MLR were collected and analyzed for their IL-2 levels (FIG. 5C). […] At higher concentrations, no viable cells remained.

[4] = tested on: CD8+ (2C) and CD4+ (TEA) T cells; experiment: MLR, double-positive CD8+1B2+ (2C) or CD4+/Va2+ (TEA) effector cells by FACS; format: cell-based, mouse; conditions: 72 h MLR
Description: Mice used included male and female 6- to 12-week-old CB6/F1 mice, obtained from the Roscoe B. Jackson Memorial Laboratory (The Jackson Laboratory, Bar Harbor, Me., http://www.jax.org). A breeding pair of transgenic (Tg) H-2b mice expressing the T-cell antigen receptor (TCR) 1B2 from the CD8+ clone 2C with specificity for H-2Ld was kindly provided by Janko Nikolic-Zugic (Memorial Sloan-Kettering Cancer Center, New York, http://www.mskcc.org). A breeding pair of Tg H-2b mice expressing the TCR from the CD4+ clone known as TEA with specificity for I-Ead allopeptide, cross-presented by host APC and bound to I-Ab and was kindly provided by Alexander Y. Rudensky (University of Washington, Seattle). I-Ead allopeptide corresponds to the positions 52 to 68 from the alpha-chain of I-E class II molecules and is expressed in all APCs from H-2b/I-E+ strains (CB6F1-hybrid of C57BL/6 and Balb/c). C57BL/6 mice are H-2b but I-E−, whereas BALB/c are H-2d and I-E+, and therefore their F1 hybrids are H-2b/1-E+ and able to directly present antigen.
Responder 2C splenocytes were harvested, and the cell suspensions were treated with Tris-buffered ammonium chloride to remove RBC. […] On day 3, the MLR cultures were harvested, and analyzed by FACS for CD4 or CD8 levels.
FACS analysis was performed using a modified FACScan (BD Biosciences, Mountain View, Calif.). Fluorescence data were collected during one minute. […]

[5] = tested on: 2C (stimulated) cells; experiment: MLR with resting control cells, stimulated 2C cells; format: cell-based, mouse; conditions: 0.5 μM, 72 h MLR with IL-7; no inhibitor 3805
Description: (§4) The aim of this test was to determine whether 2 affects only the proliferating cells or there is a general mechanism affecting all cell numbers. For this purpose we mixed 3 cell types: […]: BALB/c, 2C and OT1; […]: CB6F1, TEA and OT2. The OT1 and OT2 are splenocytes that were isolated from OT1 and OT2 mice (Jackson Laboratories, Bar Harbor, Me.),
(§5) Thus, the ability to monitor the fate of proliferation and resting cells by FACS was enabled due to the use of the MLR described above for CD4+ and CD8+ and the addition of OT2 and OT1 splenocytes, respectively.
(§6) Proliferating cells often secrete cytokines that induce survival of neighbouring cells; since the proliferation was expected to be inhibited we added 50 ng/ml of IL-7. This concentration is sufficient to keep the cells alive, but not to induce proliferation.
(§7) Irradiated Balb splenocytes were incubated for 72 h with 2C, and OT1 splenocytes in the presence of IL-7 W/O inhibitor.
(§8) The CD4+ and CD8+ were stimulated to proliferate, whereas in the absence of specific stimuli the OT1 and OT2 cell populations were resting, and theses cells were kept alive by the administration of IL-7. […] The number of 2C and OT1 cells that were treated with 0.5 μM 2 was 286 and 1148, respectively, while the number of 2C and OT1 cells that were treated with 0.5 μM 21 (control) was 4767 and 2468, respectively. This is depicted as a bar-graph in FIG. 8C.

[6] = tested on: OT1 (resting) cells; experiment: MLR with resting control cells, resting OT1 cells; format: cell-based, mouse; conditions: 0.5 μM, 72 h MLR with IL-7; no inhibitor 2459
Description: as §4, §5, §6, §7, §8

[7] = tested on: TEA (stimulated) cells; experiment: MLR with resting control cells, stimulated TEA cells; format: cell-based, mouse; conditions: 0.5 μM, 72 h MLR with IL-7; no inhibitor 3850
Description: as §4, §5, §6
(§9) The number of TEA and OT2 cells that were treated with 0.5 μM 2 was 1452 and 826, respectively, while the number of 2C and OT1 cells that were treated with 0.5 μM 21 was 3003 and 903, respectively. This is depicted as a bar-graph in FIG. 9C.

[8] = tested on: OT2 (resting) cells; experiment: MLR with resting control cells, resting OT2 cells; format: cell-based, mouse; conditions: 0.5 μM, 72 h MLR with IL-7; no inhibitor 1025
Description: as §4, §5, §6, §9

Cc1ccc(Nc2nc(-c3cc(O)c(O)c(O)c3)nc3ccccc23)cc1 [Compound 21, 5-(4-(p-tolylamino)quinazolin-2-yl)benzene-1,2,3-triol]
IC50 [1]: 850 ± 0.21 nM
IC50 [2]: 850 ± 0.21 nM
IL-2 levels in MLR supernatants [3]: decreased after 72 h
percentage of double-positive effector cells [4]: no reduction was observed
number of 2C (stimulated) cells [5]: 4767
number of OT1 (resting) cells [6]: 2468
number of TEA (stimulated) cells [7]: 3003
number of OT2 (resting) cells [8]: 903
melting point: > 250 °C

COc1ccc(Nc2nc(-c3cc(OC)c(OC)c(OC)c3)nc3ccccc23)cc1 [Compound 5, N-(4-methoxyphenyl)-2-(3,4,5-trimethoxyphenyl)quinazolin-4-amine]
IC50 [1]: 500 ± 0.14 nM
IC50 [2]: 1100 ± 0.14 nM
melting point: > 250 °C

COc1cc(-c2nc(NCCc3c[nH]c4ccccc34)c3ccccc3n2)cc(OC)c1OC [Compound 17, N-(2-(1H-indol-3-yl)ethyl)-2-(3,4,5-trimethoxyphenyl)quinazolin-4-amine]
IC50 [1]: 750 ± 0.21 nM
IC50 [2]: 700 ± 0.35 nM
melting point: > 250 °C

OCc1ccccc1Nc1nc(-c2cc(O)c(O)c(O)c2)nc2ccccc12 [Compound 28, 5-(4-(2-(hydroxymethyl)phenylamino)quinazolin-2-yl)benzene-1,2,3-triol]
IC50 [1]: 900 ± 0.14 nM
IC50 [2]: 650 ± 0.21 nM
melting point: > 250 °C

COc1cc(-c2nc(Nc3ccc4[nH]ncc4c3)c3ccccc3n2)cc(OC)c1OC [Compound 16, N-(1H-indazol-5-yl)-2-(3,4,5-trimethoxyphenyl)quinazolin-4-amine]
IC50 [1]: 600 ± 0.28 nM
IC50 [2]: 700 ± 0.35 nM
melting point: > 250 °C

COc1cc(-c2nc(NCc3ccc(N)cc3)c3ccccc3n2)cc(OC)c1OC [Compound 11, N-(4-aminobenzyl)-2-(3,4,5-trimethoxyphenyl)quinazolin-4-amine]
IC50 [1]: 380 ± 0.04 nM
IC50 [2]: 480 ± 0.18 nM
melting point: > 250 °C

CCCCCCCCOc1ccc(Nc2nc(-c3cc(O)c(O)c(O)c3)nc3ccccc23)cc1 [Compound 25, 5-(4-(4-(octyloxy)phenylamino)quinazolin-2-yl)benzene-1,2,3-triol]
IC50 [1]: 4530 ± 0.31 nM
IC50 [2]: 4250 ± 1.3 nM
melting point: > 250 °C
